According to patent US8362022B2, “Selective subtype alpha 2 adrenergic agents and methods for use thereof” (Allergan, Inc., priority 2008, dated 2013):

What was measured:
[1] = target: T1, alpha 2B receptor (Homo sapiens, UniProt P18089); test: RSAT assay (Receptor Selection and Amplification Technology), Alpha 2B; type: cell-based; settings: RSAT, Table 1
T1 construct: expressed in transfected cells; host or cells: NIH-3T3
T1 sequence (P18089 1-450): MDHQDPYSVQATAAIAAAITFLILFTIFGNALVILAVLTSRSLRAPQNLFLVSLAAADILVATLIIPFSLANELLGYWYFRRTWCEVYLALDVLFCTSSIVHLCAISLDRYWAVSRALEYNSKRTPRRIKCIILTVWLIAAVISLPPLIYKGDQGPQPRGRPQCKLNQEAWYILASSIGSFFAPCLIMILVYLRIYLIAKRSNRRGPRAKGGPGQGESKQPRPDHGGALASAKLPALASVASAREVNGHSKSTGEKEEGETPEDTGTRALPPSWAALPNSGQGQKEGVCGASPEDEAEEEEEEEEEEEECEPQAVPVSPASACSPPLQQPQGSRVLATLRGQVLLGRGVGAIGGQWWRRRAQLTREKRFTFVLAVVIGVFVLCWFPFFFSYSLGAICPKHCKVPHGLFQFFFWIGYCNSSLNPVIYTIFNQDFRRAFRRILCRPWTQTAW
Protocol: (§1) The RSAT assay measures a receptor-mediated loss of contact inhibition that results in selective proliferation of receptor-containing cells in a mixed population of confluent cells. The increase in cell number is assessed with an appropriate transfected marker gene such as β-galactosidase, the activity of which can be easily measured in a 96-well format. Receptors that activate the G protein, Gq, elicit this response. Alpha 2 receptors, which normally couple to Gi, activate the RSAT response when coexpressed with a hybrid Gq protein that has a Gi receptor recognition domain, called Gq/i5.
(§2) NIH-3T3 cells are plated at a density of 2×10^6 cells in 15 cm dishes and maintained in Dulbecco's modified Eagle's medium supplemented with 10% calf serum. One day later, cells are cotransfected by calcium phosphate precipitation with mammalian expression plasmids encoding p-SV-β-galactosidase (5-10 μg), receptor (1-2 μg) and G protein (1-2 μg). 40 μg salmon sperm DNA may also be included in the transfection mixture. […] Cells are thawed and 100 μl added to 100 μL aliquots of various concentrations of drugs in triplicate in 96-well dishes. Incubations continue 72-96 hr at 37° C. After washing with phosphate-buffered saline, β-galactosidase enzyme activity is determined by adding 200 μL of the chromogenic substrate (consisting of 3.5 mM o-nitrophenyl-β-D-galactopyranoside and 0.5% nonidet P-40 in phosphate buffered saline), incubating overnight at 30° C. and measuring optical density at 420 nm. The absorbance is a measure of enzyme activity, which depends on cell number and reflects a receptor-mediated cell proliferation. The efficacy or intrinsic activity is calculated as a ratio of the maximal effect of the drug to the maximal effect of a standard full agonist for each receptor subtype. Brimonidine, the chemical structure of which is shown below, is used as the standard agonist for the alpha 2B and alpha 2C receptors. […] NA stands for “not active” at concentrations less than 3-10 micromolar.

[2] = target: T2, Alpha 1A (Homo sapiens, UniProt P35348); test: RSAT assay (Receptor Selection and Amplification Technology), Alpha 1A; type: cell-based; settings: value in parentheses, ratio of maximal effect of drug to maximal effect of standard full agonist
T2 sequence (P35348 1-466): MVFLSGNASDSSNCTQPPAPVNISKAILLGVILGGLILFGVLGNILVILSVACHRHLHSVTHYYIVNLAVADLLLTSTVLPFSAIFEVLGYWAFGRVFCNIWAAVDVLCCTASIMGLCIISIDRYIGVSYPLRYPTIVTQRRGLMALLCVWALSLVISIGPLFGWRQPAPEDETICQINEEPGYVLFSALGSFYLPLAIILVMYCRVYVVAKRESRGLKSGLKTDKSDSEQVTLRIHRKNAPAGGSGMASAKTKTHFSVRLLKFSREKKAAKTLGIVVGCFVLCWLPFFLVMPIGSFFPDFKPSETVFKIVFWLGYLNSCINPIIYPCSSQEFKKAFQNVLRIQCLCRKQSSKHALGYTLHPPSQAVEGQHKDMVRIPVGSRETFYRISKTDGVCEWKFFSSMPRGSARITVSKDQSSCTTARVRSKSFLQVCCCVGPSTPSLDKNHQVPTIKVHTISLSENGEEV
Protocol: as §1, §2

Cc1cccc(C(Cc2cccnc2)/N=C2/NCCO2)c1C (stereo not drawn) [Compound 21, 1-(2,3-Dimethylphenyl)-N-(oxazolidin-2-ylidene)-2-(pyridin-3-yl)ethanamine]
EC50 ([1]; transfected NIH-3T3 cells with Gq/i5, read-out: potency nM (EC50) Alpha 2B): 5 nM
Intrinsic Activity efficacy Alpha 2B ([1]; value in parentheses, ratio of maximal effect to that of brimonidine): 1.2
Intrinsic Activity efficacy Alpha 1A [2]: 0.6
